The values that follow come from patent US20080003634A1, “Extended Primary Retinal Cell Culture and Stress Models, and Methods of Use” (ACUCELA, INC., priority 2003, published 2008).

The subject of assay [1] is bovine retinal pigment epithelial cells. The following applies: bovine RPE cells; cited from earlier work.
The test system of assay [2] is NFM-expressing ganglion cells. Put plainly: A2E-induced stress, NFM-labeled ganglion cell count in mature retinal cell culture. Format: cell-based, Porcine. From the text:
(§1) Porcine eyes were obtained from Kapowsin Meats, Inc. (Graham, Wash.). Eyes were enucleated, and muscle and tissue were cleaned away from the orbit. Eyes were cut in half along their equator and the neural retina was dissected from the anterior part of the eye in buffered saline solution, according to standard methods known in the art. Briefly, the retina, ciliary body, and vitreous were dissected away from the anterior half of the eye in one piece, and the retina was gently detached from the clear vitreous. Each retina was dissociated with papain (Worthington Biochemical Corporation, Lakewood, N.J.), followed by inactivation with fetal bovine serum (FBS) and addition of 134 Kunitz units/ml of DNaseI. […]
(§2) Cultures were analyzed by counting rhodopsin-labeled photoreceptors and NFM-labeled ganglion cells using an Olympus IX81 or CZX41 microscope (Olympus, Tokyo, Japan). Twenty fields of view were counted per coverslip with a 20× objective lens. Six coverslips were analyzed by this method for each condition in each experiment. Cells that were not exposed to any stressor were counted, and cells exposed to a stressor were normalized to the number of cells in the control. […]
(§3) Immunocytochemical analysis was performed and the data analyzed as described in Examples 1 and 2.

Assay [3] deals with rhodopsin-expressing photoreceptors. Kind of assay: EPO effect on photoreceptor survival under A2E stress in retinal cell culture. Format: cell-based, Porcine. The following applies: A2E 25 μM for 24 hours, no EPO; FIG. 13.
Text: as §1
Cultures were analyzed by counting rhodopsin-labeled photoreceptors and NFM-labeled ganglion cells using an Olympus IX81 or CZX41 microscope (Olympus, Tokyo, Japan). Twenty fields of view were counted per coverslip with a 20× objective lens. Six coverslips were analyzed by this method for each condition in each experiment. Cells that were not exposed to either EPO or to any stressor were counted, and cells exposed to a stressor with or without treatment with EPO were normalized to the number of cells in the control. […]

Assay [4] has the same test system. Kind of assay: A2E-induced stress, rhodopsin-labeled photoreceptor count in mature retinal cell culture. Format: cell-based, Porcine.
Text: as §1, §2, §3

For `c1ccc2c(c1)cc1ccc3cccc4ccc2c1c34` [benzo(a)pyrene], in assay [1], the “growth and replication of the cells” value is “appeared to inhibit growth and replication”.

As to `CC(C=CC1=C(C)CCCC1(C)C)=CC=CC(C)=Cc1cc(C=CC=C(C)C=CC2=C(C)CCCC2(C)C)cc[n+]1CCO` [A2E, N-retinylidene-N-retinyl-ethanolamine], the “survival of ganglion cells” value in assay [2] (20 μM A2E for 48 hours) is reported as “not adversely affected”. Further, the “number of NFM-expressing ganglion cells versus no stress” value in assay [2] (20 μM A2E, 24 hours, FIG. 8) is “not statistically different”. In assay [3], the “total live cell count of rhodopsin-expressing photoreceptors after stress versus before stress” value is “much smaller”. Besides, in assay [4] (20 μM A2E for 48 hours), the “death of photoreceptor cells compared to photoreceptor cells not exposed to A2E” value is reported as “more than 90%”. Besides, in assay [4] (varying concentrations of A2E (0, 10, 20, 40 μM), 24 hours, FIG. 7), the “number of rhodopsin-expressing photoreceptors” value was “showed a dose response”.
